Test results taken from PubChem BioAssay AID292 (DTP/NCI, 2004).
Values joined by “and” are separate entries in the source; they are usually repeats but may differ in a detail not shown here. Equal entries are not always repeated. Inconclusive results and toxic doses are left out.

Test system: B6C3F1 mice, ip Sarcoma M5076, median survival T/C
Test: NCI In Vivo Anticancer Drug Screen. Data for tumor model Sarcoma M5076 (intraperitoneal) in B6C3F1 mice
Details: endpoint: median survival time, higher = longer survival
Summary of the method: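 The readout is a ratio of survival in drug-treated animals to survival in animals given vehicle alone, taken in mice bearing a transplanted tumour line.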

[1] = dose: 75.0 mg/kg/injection, schedule: Q04DX004 (ip), vehicle: saline with Tween-80
[2] = dose: 150.0 mg/kg/injection, schedule: Q04DX004 (ip), vehicle: saline with Tween-80
[3] = dose: 300.0 mg/kg/injection, schedule: Q04DX004 (ip), vehicle: saline with Tween-80
[4] = dose: 600.0 mg/kg/injection, schedule: Q04DX004 (ip), vehicle: saline with Tween-80
[5] = dose: 50.0 mg/kg/injection, schedule: Q04DX004 (ip), vehicle: saline with Tween-80
[6] = dose: 100.0 mg/kg/injection, schedule: Q04DX004 (ip), vehicle: saline with Tween-80
[7] = dose: 200.0 mg/kg/injection, schedule: Q04DX004 (ip), vehicle: saline with Tween-80
[8] = dose: 400.0 mg/kg/injection, schedule: Q04DX004 (ip), vehicle: saline with Tween-80
[9] = dose: 50.0 mg/kg/injection, schedule: Q04DX004 (ip), vehicle: saline
[10] = dose: 50.0 mg/kg/injection, schedule: Q04DX004 (ip), vehicle: Klucel (hydroxypropylcellulose) (HPC)
[11] = dose: 100.0 mg/kg/injection, schedule: Q04DX004 (ip), vehicle: Klucel (hydroxypropylcellulose) (HPC)
[12] = dose: 200.0 mg/kg/injection, schedule: Q04DX004 (ip), vehicle: Klucel (hydroxypropylcellulose) (HPC)
[13] = dose: 400.0 mg/kg/injection, schedule: Q04DX004 (ip), vehicle: Klucel (hydroxypropylcellulose) (HPC)
[14] = dose: 6.25 mg/kg/injection, schedule: Q04DX004 (ip), vehicle: Klucel (hydroxypropylcellulose) (HPC)
[15] = dose: 12.5 mg/kg/injection, schedule: Q04DX004 (ip), vehicle: Klucel (hydroxypropylcellulose) (HPC)
[16] = dose: 25.0 mg/kg/injection, schedule: Q04DX004 (ip), vehicle: Klucel (hydroxypropylcellulose) (HPC)
[17] = dose: 125.0 mg/kg/injection, schedule: Q04DX004 (ip), vehicle: saline with Tween-80

Compound: O=C(CN1CCC(O)(c2ccc(F)cc2)CC1)N1CCN(C/C=C/c2ccccc2)CC1
- T/C (dose: 37.5 mg/kg/injection, schedule: Q04DX004 (ip), vehicle: saline with Tween-80): 103 % of control
- T/C [1]: 100 % of control
- T/C [2]: 102 % of control
- T/C [3]: 94 % of control
- T/C [4]: 95 % of control

Compound: NC(=O)C1C=CN(Cc2ccccc2)C=C1
- T/C [5]: 111 % of control
- T/C [6]: 116 % of control
- T/C [7]: 106 % of control

Compound: OCC1OC(n2cnc3cc(Cl)c(Cl)cc32)C(O)C1O (stereo not given)
- T/C [2]: 104 % of control
- T/C [3]: 109 % of control
- T/C [4]: 107 % of control

Compound: Cn1cnc([N+](=O)[O-])c1SCC(=O)O
- T/C (dose: 75.0 mg/kg/injection, schedule: Q04DX004 (ip), vehicle: Klucel (hydroxypropylcellulose) (HPC)): 92 % of control
- T/C (dose: 150.0 mg/kg/injection, schedule: Q04DX004 (ip), vehicle: Klucel (hydroxypropylcellulose) (HPC)): 101 % of control
- T/C (dose: 300.0 mg/kg/injection, schedule: Q04DX004 (ip), vehicle: Klucel (hydroxypropylcellulose) (HPC)): 98 % of control
- T/C (dose: 600.0 mg/kg/injection, schedule: Q04DX004 (ip), vehicle: Klucel (hydroxypropylcellulose) (HPC)): 93 % of control
- T/C (dose: 1200.0 mg/kg/injection, schedule: Q04DX004 (ip), vehicle: Klucel (hydroxypropylcellulose) (HPC)): 92 % of control

Compound: O=C(Nc1nc(-c2ccccc2)cs1)OCC(Cl)(Cl)Cl
- T/C (dose: 25.0 mg/kg/injection, schedule: Q04DX004 (ip), vehicle: saline with Tween-80): 103 % of control
- T/C [5]: 107 % of control
- T/C [6]: 94 % of control
- T/C [7]: 91 % of control
- T/C [8]: 91 % of control

Compound: CC1C(C#N)C(=O)NC(=O)C1C#N (stereo not given)
- T/C [9]: 100 % of control
- T/C (dose: 100.0 mg/kg/injection, schedule: Q04DX004 (ip), vehicle: saline): 104 % of control
- T/C (dose: 200.0 mg/kg/injection, schedule: Q04DX004 (ip), vehicle: saline): 97 % of control
- T/C (dose: 400.0 mg/kg/injection, schedule: Q04DX004 (ip), vehicle: saline): 97 % of control
- T/C (dose: 800.0 mg/kg/injection, schedule: Q04DX004 (ip), vehicle: saline): 102 % of control

Compound: Cc1c(-c2ccc(C3CCCCC3)cc2)nc2ccc(F)cc2c1C(=O)O
- T/C [10]: 114 % of control and 121 % of control
- T/C [11]: 118 % of control and 122 % of control
- T/C (dose: 800.0 mg/kg/injection, schedule: Q04DX004 (ip), vehicle: Klucel (hydroxypropylcellulose) (HPC)): 152 % of control

Compound: Nc1nc(=S)c2[nH]cnc2[nH]1
- T/C (dose: 3.0 mg/kg/injection, schedule: Q01DX004 (ip), vehicle: Klucel (hydroxypropylcellulose) (HPC)): 163 % of control
- T/C (dose: 6.0 mg/kg/injection, schedule: Q01DX004 (ip), vehicle: Klucel (hydroxypropylcellulose) (HPC)): 178 % of control
- T/C (dose: 12.0 mg/kg/injection, schedule: Q01DX004 (ip), vehicle: Klucel (hydroxypropylcellulose) (HPC)): 182 % of control
- T/C (dose: 24.0 mg/kg/injection, schedule: Q04DX004 (ip), vehicle: Klucel (hydroxypropylcellulose) (HPC)): 175 % of control

Compound: O=C1NC(=O)N(c2ccc(Cl)c(Cl)c2)C1=O
- T/C [10]: 93 % of control
- T/C [11]: 95 % of control
- T/C [12]: 92 % of control
- T/C [13]: 89 % of control

Compound: O=C1N2CCNc3ccccc3C(c3ccccc3)N1CC2 (stereo not given)
- T/C [14]: 117 % of control
- T/C [15]: 103 % of control
- T/C [16]: 106 % of control

Compound: Nc1ccn(C2CC(N)C(CO)O2)c(=O)n1 (stereo not given)
- T/C (dose: 25.0 mg/kg/injection, schedule: Q04DX004 (ip), vehicle: water): 109 % of control
- T/C (dose: 50.0 mg/kg/injection, schedule: Q04DX004 (ip), vehicle: water): 118 % of control and 120 % of control
- T/C (dose: 100.0 mg/kg/injection, schedule: Q04DX004 (ip), vehicle: water): 121 % of control and 124 % of control
- T/C (dose: 800.0 mg/kg/injection, schedule: Q04DX004 (ip), vehicle: water): 163 % of control

Compound: CC[C@](O)(C(=O)O)c1cc2n(c(=O)c1CO)Cc1cc3ccccc3nc1-2
- T/C (dose: 3.12 mg/kg/injection, schedule: Q04DX004 (ip), vehicle: saline): 115 % of control
- T/C (dose: 6.25 mg/kg/injection, schedule: Q04DX004 (ip), vehicle: saline): 115 % of control and 123 % of control
- T/C (dose: 12.5 mg/kg/injection, schedule: Q04DX004 (ip), vehicle: saline): 119 % of control
- T/C (dose: 25.0 mg/kg/injection, schedule: Q04DX004 (ip), vehicle: saline): 123 % of control
- T/C [9]: 114 % of control

Compound: O=C(Nc1cccc(O)c1)C(Cl)=C(Cl)Cl
- T/C (dose: 6.25 mg/kg/injection, schedule: Q04DX004 (ip), vehicle: other): 96 % of control
- T/C (dose: 12.5 mg/kg/injection, schedule: Q04DX004 (ip), vehicle: other): 95 % of control

Compound: CN1C(=O)C(=O)N(Cc2ccco2)C1=O
- T/C (dose: 31.25 mg/kg/injection, schedule: Q04DX004 (ip), vehicle: Klucel (hydroxypropylcellulose) (HPC)): 106 % of control
- T/C (dose: 62.5 mg/kg/injection, schedule: Q04DX004 (ip), vehicle: Klucel (hydroxypropylcellulose) (HPC)): 106 % of control
- T/C (dose: 125.0 mg/kg/injection, schedule: Q04DX004 (ip), vehicle: Klucel (hydroxypropylcellulose) (HPC)): 99 % of control
- T/C (dose: 250.0 mg/kg/injection, schedule: Q04DX004 (ip), vehicle: Klucel (hydroxypropylcellulose) (HPC)): 97 % of control
- T/C (dose: 500.0 mg/kg/injection, schedule: Q04DX004 (ip), vehicle: Klucel (hydroxypropylcellulose) (HPC)): 100 % of control

Compound: N#CC1C(=O)NC(=O)C(C#N)C1CCc1ccccc1 (stereo not given)
- T/C (dose: 50.0 mg/kg/injection, schedule: Q04DX004 (ip), vehicle: Klucel + Tween-80): 105 % of control
- T/C (dose: 100.0 mg/kg/injection, schedule: Q04DX004 (ip), vehicle: Klucel + Tween-80): 97 % of control
- T/C (dose: 200.0 mg/kg/injection, schedule: Q04DX004 (ip), vehicle: Klucel + Tween-80): 105 % of control

Compound: COc1cc(C(CC(C)=O)c2cc3c(cc2OC(C)=O)OCO3)cc(OC)c1OC (stereo not given) (tested in a mixture with another compound)
- T/C (dose: 27.0 mg/kg/injection, schedule: Q04DX004 (ip), vehicle: saline with Tween-80): 100 % of control
- T/C (dose: 45.0 mg/kg/injection, schedule: Q04DX004 (ip), vehicle: saline with Tween-80): 101 % of control and 103 % of control
- T/C [1]: 111 % of control and 119 % of control
- T/C [17]: 119 % of control
- T/C (dose: 208.3 mg/kg/injection, schedule: Q04DX004 (ip), vehicle: saline with Tween-80): 124 % of control

Compound: N#CC1C(=O)NC(=O)C(C#N)C1c1ccc(Cl)c(Cl)c1 (stereo not given)
- T/C [10]: 102 % of control
- T/C [11]: 94 % of control
- T/C [12]: 99 % of control
- T/C [13]: 102 % of control

Compound: COc1ccccc1N=C1SCC(=O)N1Cc1ccco1
- T/C [5]: 110 % of control
- T/C [6]: 122 % of control
- T/C [7]: 101 % of control
- T/C [8]: 98 % of control
- T/C (dose: 800.0 mg/kg/injection, schedule: Q04DX004 (ip), vehicle: saline with Tween-80): 102 % of control

Compound: CCCCCC[Se][Se]CCCCCC
- T/C (dose: 3.12 mg/kg/injection, schedule: Q04DX004 (ip), vehicle: Klucel (hydroxypropylcellulose) (HPC)): 123 % of control
- T/C [14]: 106 % of control
- T/C [15]: 114 % of control
- T/C [16]: 115 % of control

Compound: CCOC(=O)c1c(C(=O)OC)nc2n1-c1ccccc1OC2
- T/C (dose: 31.25 mg/kg/injection, schedule: Q04DX004 (ip), vehicle: saline with Tween-80): 100 % of control
- T/C (dose: 62.0 mg/kg/injection, schedule: Q04DX004 (ip), vehicle: saline with Tween-80): 103 % of control
- T/C [17]: 100 % of control
- T/C (dose: 250.0 mg/kg/injection, schedule: Q04DX004 (ip), vehicle: saline with Tween-80): 88 % of control
- T/C (dose: 500.0 mg/kg/injection, schedule: Q04DX004 (ip), vehicle: saline with Tween-80): 96 % of control

Compound: Cn1[nH]c2[nH]c(=S)sc(=S)c2c1=O
- T/C [16]: 100 % of control
- T/C [10]: 94 % of control
- T/C [11]: 95 % of control
- T/C [12]: 94 % of control
- T/C [13]: 95 % of control

Compound: CC1=CC(=NN=c2cc(C)n([O-])c(C)c2)C=C(C)[N+]1=O
- T/C [6]: 122 % of control
- T/C [7]: 121 % of control
- T/C [8]: 98 % of control
